Here are results for 31 compounds from PubChem BioAssay AID624026 (Broad Institute, 2012).

Each structure is given as a SMILES string. Several values for one entry are separate records, joined by “and”; a condition that tells them apart may be missing. Equal entries are not always repeated. Activity calls are given as the source filed them.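 The calls were made as follows: active = compounds reducing cell viability with a fitted AC50 at or below twice their top valid dose; inconclusive = flat curve between -70% and -30%, or an unreliable fit; inactive = the rest.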

Tested on in the first experiment: not listed separately
Description: cell viability loss, ATP luminescence – CellTiter-Glo, 24 h, powder samples, set 7, cytotoxicity control for SR-BI HDL uptake inhibitor project, dose response (AID 624026). The settings on record: ldlA[mSR-BI] CHO cells viability, CellTiter-Glo ATP, 24 h; at 35 µM (top of the series).
Take `CC(C)NC(=O)Nc1ccc2c(c1)C(=O)N([C@@H](C)CO)C[C@H](C)[C@H](CN(C)S(=O)(=O)c1ccc(Cl)cc1)O2`: the activity change, negative = cytotoxicity was 6.98% (inactive).
Consider `O=C(O)CC(C(=O)Nc1cccc(C(F)(F)F)c1)C1CCCO1` (configuration not stated), for which the activity change, negative = cytotoxicity is 1.15% (inactive).
Regarding `CC(C)NC(=O)Nc1ccc2c(c1)CC(=O)N([C@H](C)CO)C[C@@H](C)[C@H](CN(C)S(=O)(=O)c1ccc(Cl)cc1)O2`, the activity change, negative = cytotoxicity is 8.33% (inactive).
In the case of `COc1ccc2c(c1)CC(C1(O)C(=O)N(C)c3ccccc31)C2=O` (configuration not stated), the activity change, negative = cytotoxicity is -4.38% (inactive).
Take `COc1c(NC(=O)C(=O)c2ccc(OCCN3CCOCC3)c3ccccc23)cc(C(C)(C)C)cc1NS(C)(=O)=O`: the activity change, negative = cytotoxicity is -29.9% (inactive).
As for `CC(C)NC(=O)Nc1ccc2c(c1)C(=O)N([C@H](C)CO)C[C@H](C)[C@H](CN(C)S(=O)(=O)c1ccc(Cl)cc1)O2`, the activity change, negative = cytotoxicity was 1.21% (inactive).
Still for that read-out and setting: under `O=C1C2C3C=CC(C3)C2C(=O)N1c1cccc(N2C(=O)C3C4C=CC(C4)C3C2=O)n1` (configuration not stated) stands -1.42% (inactive).
On the same count and under the same terms, with `Cc1ccc(OCc2cc(C(=O)N3CCCC(O)C3)no2)cn1` (configuration not stated) the figure was -3.58% (inactive); with `CC(C)NC(=O)Nc1cccc2c1O[C@@H](CN(C)S(=O)(=O)c1ccc(Cl)cc1)[C@H](C)CN([C@H](C)CO)C2=O`, 3.81% (inactive).
The same measure, in the same setting: with `CC(C)NC(=O)Nc1ccc2c(c1)C(=O)N([C@@H](C)CO)C[C@@H](C)[C@H](CN(C)S(=O)(=O)c1ccc(Cl)cc1)O2` the figure was 0.1% (inactive); with `CC(C)NC(=O)Nc1ccc2c(c1)C(=O)N([C@H](C)CO)C[C@@H](C)[C@@H](CN(C)S(=O)(=O)c1ccc(Cl)cc1)O2`, 4.21% (inactive).
Turning to `C[C@@H]1CN([C@H](C)CO)C(=O)c2cc(NC(=O)Cc3cn(C)c4ccccc34)ccc2O[C@H]1CN(C)S(=O)(=O)c1ccc(F)cc1`, the activity change, negative = cytotoxicity was 12.8% (inactive).
Turning to `CC(C)NC(=O)Nc1ccc2c(c1)C(=O)N([C@@H](C)CO)C[C@@H](C)[C@@H](CN(C)S(=O)(=O)c1ccc(Cl)cc1)O2`, the activity change, negative = cytotoxicity was 12.2% (inactive).
Still for that read-out and setting: with `CC(C)NC(=O)Nc1ccc2c(c1)C(=O)N([C@H](C)CO[Si](C)(C)C(C)(C)C)C[C@@H](C)[C@H](CN(C)S(=O)(=O)c1ccc(Cl)cc1)O2` the figure was 2% (inactive); with `C[C@@H]1CN([C@H](C)CO)C(=O)c2cc(NC(=O)Cc3cn(C)c4ccccc34)ccc2O[C@H]1CN(C)S(=O)(=O)c1ccc(Cl)cc1`, -1.59% (inactive); with `CC(C)CN(C(=O)COC(=O)C12CC3CC(CC(O)(C3)C1)C2)C1CCS(=O)(=O)C1` (configuration not stated), -5.18% (inactive).
Regarding `C[C@@H]1CN([C@H](C)CO)C(=O)c2cc(NC(=O)C3CCCCC3)ccc2O[C@H]1CN(C)C(=O)c1ccc(Cl)cc1`, the activity change, negative = cytotoxicity was -8.49% (inactive).
Consider `CC(C)NC(=O)Nc1ccc2c(c1)C(=O)N([C@H](C)CO)C[C@@H](C)[C@H](CN(C)S(=O)(=O)c1ccc(Cl)cc1)O2`, for which the activity change, negative = cytotoxicity was 10.4% (inactive) and 2.32% (inactive).
Still for that read-out and setting: with `Cc1noc(C)c1S(=O)(=O)Nc1ccc2c(c1)C(=O)N([C@H](C)CO)C[C@@H](C)[C@H](CN(C)S(=O)(=O)c1ccc(Cl)cc1)O2` the figure was 2.07% (inactive); with `C[C@@H]1CN([C@H](C)CO)C(=O)c2cc(NC(=O)C3CCCCC3)ccc2O[C@H]1CN(C)S(=O)(=O)c1ccccc1Cl`, 2.46% (inactive).
Same read-out and setting: with `C[C@@H]1CN([C@H](C)CO)C(=O)c2cc(NC(=O)C3CCCCC3)ccc2O[C@H]1CN(C)S(=O)(=O)c1ccc(Cl)cc1` the figure was 0.365% (inactive); with `C[C@@H]1CN([C@H](C)CO[Si](C)(C)C(C)(C)C)C(=O)c2cc(NC(=O)C3CCCCC3)ccc2O[C@H]1CN(C)C(=O)c1ccc(Cl)cc1`, 1.39% (inactive); with `C[C@@H]1CN([C@H](C)CO)C(=O)c2cc(NC(=O)C3CCOCC3)ccc2O[C@H]1CN(C)S(=O)(=O)c1ccc(Cl)cc1`, -3.51% (inactive).
Still for that read-out and setting: under `C[C@@H]1CN([C@H](C)CO)C(=O)c2cc(NC(=O)C3CCCCC3)ccc2O[C@H]1CN(C)S(=O)(=O)c1cccc(Cl)c1` stands -12.5% (inactive); under `COCC(=O)N1CCc2cc(-c3csc(NC(=O)c4cc(OC)cc(OC)c4)n3)ccc21`, 3.29% (inactive).
For `CNC[C@@H]1Oc2ccc(NC(=O)NC(C)C)cc2C(=O)N([C@H](C)CO[Si](C)(C)C(C)(C)C)C[C@H]1C`, the activity change, negative = cytotoxicity is 0.137% (inactive).
`CCOc1cc2c3c(c1)C1(C(=O)N3C(C)(C)CC2C)C(C#N)=C(N)N2C(=C1C#N)Nc1ccccc12` (configuration not stated): the activity change, negative = cytotoxicity was -18.2% (inactive).
With `C[C@H](C(=O)NC1CCCC1)N(C(=O)Cn1nnc(-c2ccc3c(c2)OCO3)n1)C1CCCCC1`, the activity change, negative = cytotoxicity was -3.33% (inactive).

The subject of the next experiment is ldlA[mSR-BI] CHO cells viability, CellTiter-Glo ATP, 24 h. Described as above.
Settings: not given
For `C=CCOC(=O)N(C)C[C@@H]1Oc2ccc(NC(=O)OCC3c4ccccc4-c4ccccc43)cc2C(=O)N([C@H](C)CO)C[C@H]1C`, the AC50 was > 70 µM (inactive).
Consider `C=CCOC(=O)N(C)C[C@@H]1Oc2ccc(N)cc2C(=O)N([C@H](C)CO[Si](C)(C)C(C)(C)C)C[C@H]1C`, for which the AC50 is > 70 µM (inactive).
Turning to `C=CCOC(=O)N(C)C[C@@H]1Oc2ccc(NC(=O)NC(C)C)cc2C(=O)N([C@H](C)CO[Si](C)(C)C(C)(C)C)C[C@H]1C`, the AC50 was 21.6 µM.
Regarding `CC(C)NC(=O)Nc1ccc2c(c1)C(=O)N([C@H](C)CO)C[C@@H](C)[C@H](CN(C)S(=O)(=O)c1ccc(Cl)cc1)O2`, the AC50 is > 70 µM (inactive).
